Literature values in patent CN104352465A, “一种不含二氧化硅的琥珀酸普芦卡必利药物组合物及其制备方法” (CHENGDU SINO-STRONG PHARMACEUTICAL Co Ltd, priority 2014, dated 2015).

Conditions: within shelf life, with the diluent lactose monohydrate

adduct formation with lactose monohydrate: 形成乳糖加合物
Compound: COCCCN1CCC(NC(=O)c2cc(Cl)c(N)c3c2OCC3)CC1.O=C(O)CCC(=O)O [琥珀酸普芦卡必利, 4-氨基-5-氯-2,3-二氢-N-[1-(3-甲氧基丙基)-4-哌啶基]-7-苯并呋喃甲酰胺丁二酸盐]
